Here are results for eleven molecules from ChEMBL document CHEMBL1201862, “PubChem BioAssay data set” (2004).

Test systems include A549; BT-549; CCRF-CEM; DU-145; EKVX; HCC 2998; HCT-15; Hs-578T; IGROV-1; KM12; MDA-MB-435; OVCAR-3; OVCAR-4; OVCAR-8; RPMI-8226; SF-539; SNB-75; RXF 393; PC-3; SK-MEL-2.
Holding throughout (test): NCI tumour cell line growth inhibition, 48 h

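Protocol summary: plate cells (96-well), add compound at 5 concentrations, incubate 48 h, interpolate endpoints linearly. At the GI50, growth is halved.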 The source made the active and inactive calls. Rule as the data show it: active = GI50 up to about 1.1 µM and inactive = higher.

As to `C[C@H]1CC[C@@H]2[C@@H](C)C[C@H]3[C@@H]4C(C)(C)OC(=O)[C@]4(C)C(=O)[C@@]23C1=O`, the GI50 in the assay on A549, with BT-549, in the assay on CCRF-CEM, in the assay on DU-145, in the assay with EKVX and in the assay with HCC 2998 was > 100 µM (inactive) each time. In addition, the GI50 with HCT-15 was > 100 µM; in the assay with Hs-578T, > 100 µM (inactive); in the assay on IGROV-1 it was > 100 µM (inactive); with KM12, > 100 µM (inactive); in the assay with MDA-MB-435 it was > 100 µM (inactive); in the assay on OVCAR-3, > 100 µM (inactive). The GI50 in the assay on OVCAR-4, in the assay on OVCAR-8, with RPMI-8226, in the assay on SF-539 and in the assay on SNB-75 was > 100 µM (inactive) in each case.

Regarding `NCCCCN(CCCN)Cc1ccc2ccccc2c1`, the GI50 was 51.9 µM (inactive) in the assay on A549; 90.4 µM (inactive) in the assay with BT-549; 27.1 µM (inactive) in the assay with CCRF-CEM; 66.7 µM (inactive) in the assay with DU-145; 21.3 µM (inactive) with EKVX; 10.6 µM (inactive) with HCC 2998. For the same molecule, the GI50 in the assay with HCT-15 was > 100 µM; in the assay on Hs-578T, 11.3 µM (inactive); in the assay on IGROV-1, 25.2 µM (inactive); in the assay on KM12, 27.4 µM (inactive); in the assay on MDA-MB-435, > 100 µM (inactive); in the assay with OVCAR-4 it was 39.4 µM (inactive). The GI50 was 39.4 µM (inactive) in the assay with OVCAR-8; > 100 µM (inactive) with RPMI-8226; 63.4 µM (inactive) in the assay on RXF 393; 30.8 µM (inactive) in the assay with SF-539; 2.94 µM (inactive) with SNB-75.

As for `CC(CC(=O)CO[C@H]1[C@H](O)[C@@H](O)[C@@H](O)[C@@H]2NC(=O)c3c(cc4c(c3O)OCO4)[C@H]21)OC1OC(CO)C(O)C(O)C1O` (some centres undefined), the GI50 with A549 is 0.646 µM (active); in the assay with BT-549, 0.495 µM (active); with CCRF-CEM, 0.182 µM (active); with EKVX it was 0.553 µM (active); in the assay on HCC 2998, 0.218 µM (active); with HCT-15, 0.396 µM. For the same molecule, the GI50 was 0.4 µM (active) in the assay on Hs-578T; 0.547 µM (active) in the assay on IGROV-1; 0.3 µM (active) with KM12; 0.392 µM (active) in the assay with MDA-MB-435; 0.451 µM (active) with OVCAR-3; 0.277 µM (active) in the assay on OVCAR-4. The GI50 in the assay on OVCAR-8 was 0.313 µM (active); in the assay on PC-3, 0.338 µM (active); in the assay on RPMI-8226 it was 0.397 µM (active); in the assay with RXF 393, 0.269 µM (active); with SF-539, 0.419 µM (active); in the assay on SK-MEL-2, 0.242 µM (active). Also, the GI50 in the assay with SNB-75 is 0.207 µM (active).

Turning to `COc1ccc(CCc2nccn2C)cc1OC`, the GI50 is > 100 µM (inactive) in the assay with A549; > 100 µM (inactive) in the assay on BT-549; > 100 µM (inactive) in the assay on CCRF-CEM; > 100 µM (inactive) with EKVX; > 100 µM (inactive) with HCC 2998; > 100 µM in the assay with HCT-15. Also, the GI50 in the assay with Hs-578T, with IGROV-1, with MDA-MB-435, in the assay on OVCAR-3, with OVCAR-4 and in the assay on OVCAR-8 was > 100 µM (inactive) throughout. In addition, the GI50 in the assay on PC-3, in the assay on RPMI-8226, with SF-539 and with SK-MEL-2 was > 100 µM (inactive) throughout.

Regarding `CCOC(=O)COc1cc(-c2ccccc2)nc2cc(F)ccc12`, the GI50 in the assay with A549 is > 100 µM (inactive); with BT-549 it was > 100 µM (inactive); in the assay on CCRF-CEM, 85.7 µM (inactive); in the assay with DU-145, > 100 µM (inactive); in the assay with EKVX, > 100 µM (inactive); in the assay with HCC 2998, > 100 µM (inactive). Besides, the GI50 with HCT-15 was > 100 µM; in the assay on IGROV-1, > 100 µM (inactive); in the assay with KM12, > 100 µM (inactive); with MDA-MB-435 it was > 100 µM (inactive); in the assay with OVCAR-3, > 100 µM (inactive); in the assay on OVCAR-4, 42 µM (inactive). Moreover, the GI50 in the assay on OVCAR-8 is > 100 µM (inactive); in the assay on PC-3, > 100 µM (inactive); with RPMI-8226, > 100 µM (inactive); in the assay with RXF 393 it was > 100 µM (inactive); in the assay on SF-539, 39.7 µM (inactive); with SK-MEL-2, > 100 µM (inactive). Moreover, the GI50 in the assay with SNB-75 was > 100 µM (inactive).

For the molecule `O=Cc1ccc(-c2ccc(-c3ccc(C=O)s3)o2)s1`, the GI50 in the assay with A549 was > 81.7 µM (inactive); in the assay with BT-549 it was 77.3 µM (inactive); in the assay with CCRF-CEM, > 43.6 µM (inactive); with DU-145 it was > 100 µM (inactive); in the assay on EKVX, > 53.3 µM (inactive); in the assay on HCC 2998, 18 µM (inactive). For the same molecule, the GI50 in the assay with HCT-15 is 61.5 µM; in the assay with IGROV-1, 3.27 µM (inactive); in the assay with KM12 it was > 100 µM (inactive); in the assay with MDA-MB-435, 71.4 µM (inactive); in the assay on OVCAR-3 it was 1.44 µM (inactive); in the assay on OVCAR-4, 2.79 µM (inactive). In addition, the GI50 in the assay with OVCAR-8 is > 100 µM (inactive); in the assay on PC-3 it was > 100 µM (inactive); in the assay on RPMI-8226 it was > 100 µM (inactive); with RXF 393, 0.233 µM (active); in the assay with SF-539, > 82.4 µM (inactive); with SK-MEL-2, > 90.6 µM (inactive). Further, the GI50 in the assay on SNB-75 is 29.7 µM (inactive).

Regarding `O=S(=O)(c1ccccc1)C1(CCC2OCCO2)C=CC2(CC1)OCCO2` (centres undefined), the GI50 in the assay with A549, in the assay on BT-549, in the assay on CCRF-CEM, in the assay on DU-145, in the assay with EKVX and in the assay with HCC 2998 was > 100 µM (inactive) throughout. Moreover, the GI50 with HCT-15 was > 100 µM; with IGROV-1, > 100 µM (inactive); in the assay with MDA-MB-435, > 100 µM (inactive); with OVCAR-3, > 100 µM (inactive); with OVCAR-4 it was > 100 µM (inactive); with OVCAR-8, > 100 µM (inactive). For the same molecule, the GI50 in the assay on PC-3 is > 10 µM (inactive); in the assay on RPMI-8226, > 100 µM (inactive); in the assay with SNB-75, > 100 µM (inactive).

For `COc1cccc(C2SC(=N)Nc3c2c(C)nn3C(=O)c2ccccc2O)c1` (centres undefined), the GI50 is 1.75 µM (inactive) in the assay on A549; > 10 µM (inactive) with BT-549; > 3.21 µM (inactive) with CCRF-CEM; > 2.44 µM (inactive) with DU-145; > 9.14 µM (inactive) in the assay on EKVX; > 10 µM (inactive) in the assay on HCC 2998. For the same molecule, the GI50 in the assay on HCT-15 was > 5.7 µM; in the assay on IGROV-1, > 2.11 µM (inactive); in the assay on KM12 it was > 2.79 µM (inactive); with MDA-MB-435, 1.76 µM (inactive); with OVCAR-3 it was > 3.65 µM (inactive); in the assay with OVCAR-4 it was > 2.88 µM (inactive). The GI50 in the assay on OVCAR-8 was > 2.76 µM (inactive); in the assay on PC-3 it was > 10 µM (inactive); in the assay with RPMI-8226 it was > 10 µM (inactive); in the assay with RXF 393, 2.14 µM (inactive); in the assay on SK-MEL-2, > 7.23 µM (inactive); in the assay with SNB-75, 0.925 µM (active).

For `CCCCCCCCCCCC[S+](C)C`, the GI50 in the assay with A549 was 11.5 µM (inactive); in the assay on BT-549 it was 2.19 µM (inactive); with CCRF-CEM it was 2.04 µM (inactive); in the assay on DU-145 it was 1.61 µM (inactive); in the assay on EKVX, 4.83 µM (inactive); in the assay with HCC 2998 it was 4.21 µM (inactive). In addition, the GI50 is 18.5 µM in the assay with HCT-15; 2 µM (inactive) in the assay with IGROV-1; 3.36 µM (inactive) with KM12; 3.36 µM (inactive) in the assay with MDA-MB-435; 5.38 µM (inactive) with OVCAR-3; 6.07 µM (inactive) in the assay with OVCAR-4. The GI50 in the assay with OVCAR-8 was 4.67 µM (inactive); in the assay on PC-3 it was 1.58 µM (inactive); in the assay with RPMI-8226, 3.41 µM (inactive); in the assay on RXF 393, 2.07 µM (inactive); with SF-539, 6.24 µM (inactive); in the assay on SK-MEL-2, 5.02 µM (inactive). Also, the GI50 with SNB-75 is 5.68 µM (inactive).

Turning to `Cc1ccc(-c2c(C#N)c(-c3ccc(Cl)cc3)c(C#N)c(=O)n2NS(=O)(=O)c2ccccc2)cc1`, the GI50 in the assay on A549 is 68.4 µM (inactive); in the assay on BT-549 it was 34.4 µM (inactive); in the assay on CCRF-CEM it was 34.4 µM (inactive); in the assay on EKVX, 77.4 µM (inactive); in the assay on HCC 2998, 37.1 µM (inactive); with HCT-15 it was 51.6 µM. Also, the GI50 in the assay with Hs-578T was 24.4 µM (inactive); in the assay with IGROV-1, 33 µM (inactive); in the assay on KM12 it was 81.7 µM (inactive); with MDA-MB-435, > 100 µM (inactive); in the assay with OVCAR-4, 37.2 µM (inactive); in the assay on OVCAR-8, 76.4 µM (inactive). In addition, the GI50 with PC-3 is 29.9 µM (inactive); with RPMI-8226, 18.4 µM (inactive); in the assay with RXF 393, 32 µM (inactive); in the assay with SF-539 it was 44.9 µM (inactive); in the assay with SK-MEL-2, 25.7 µM (inactive); with SNB-75 it was 47.5 µM (inactive).

Turning to `C=CN(C=C)C(=O)Cn1cc(-c2ccccc2)nn1`, the GI50 in the assay on A549, in the assay on BT-549, in the assay on CCRF-CEM, with DU-145, in the assay with EKVX and with HCC 2998 was > 100 µM (inactive) each time. In addition, the GI50 in the assay with HCT-15 is > 100 µM; in the assay with IGROV-1, > 100 µM (inactive); with KM12, > 100 µM (inactive); with MDA-MB-435 it was > 100 µM (inactive); with OVCAR-4 it was 31.1 µM (inactive); in the assay on OVCAR-8, > 100 µM (inactive). The GI50 in the assay on PC-3, with RPMI-8226, in the assay with SF-539, in the assay on SK-MEL-2 and in the assay with SNB-75 was > 100 µM (inactive) in each case.
